The values that follow come from ChEMBL document CHEMBL3243921, “2-Pyrrolidinylideneureas, a new class of central nervous system agents” (J Med Chem, 1978).

Activity calls are given as the source filed them.

For test [1], the system named is Mus musculus. Put plainly: Sedative-hypnotic activity in po dosed mouse assessed as increase in pentylenetetrazol-induced persistent-convulsive threshold. The test is classed as functional, organism-based.
Test [2] deals with Rattus norvegicus. Put plainly: Antianxiety activity in ip dosed rat assessed as effect on increase in punished responses administered qd for 5 days measured every day for 5 days. The format is functional.
Test [3] has as its system Mus musculus. As to the kind of experiment: Muscle relaxant activity in po dosed mouse assessed as blockade of pentylenetetrazol-induced tonic extensor seizure. The test is classed as functional.
Test [4] concerns Mus musculus. As to the kind of experiment: Anticonvulsant activity in po dosed mouse assessed as blockade of supramaximal electroshock-induced […] seizure. The test is classed as functional. A general note: Protection in the maximal electroshock model is a classic sign of anticonvulsant action.
Test [5] deals with Mus musculus. Put plainly: Muscle relaxant activity in po dosed mouse assessed as increase in strychnine-induced persistant convulsive threshold. The test is classed as functional.
Test [6] has as its system Mus musculus. Put plainly: Hypnotic activity in po dosed mouse assessed as increase in pentylenetetrazol-induced persistent-convulsive threshold. The format is functional, organism-based.

As to `O=C(/N=C1\CCCN1Cc1ccccc1)Nc1c(Cl)cccc1Cl`, the outcome in test [1], in test [2], in test [3], in test [4], in test [5] and in test [6] was inactive.
As to `CN1CCC/C1=N\C(=O)Nc1ccc(N(C)C)cc1`, the outcome in test [2], in test [3], in test [4] and in test [5] was inactive.
With `CN1CCC/C1=N\C(=S)Nc1ccc([N+](=O)[O-])cc1`, the outcome in test [1], in test [2], in test [3], in test [4], in test [5] and in test [6] was inactive.
In the case of `O=C(/N=C1\CCCN1)Nc1ccccc1`, the outcome in test [3] and in test [5] was Active.
`CN1CCC/C1=N\C(=O)Nc1ccc(O)cc1`: the outcome in test [2], in test [3], in test [4] and in test [5] was inactive.
Turning to `CCCCCCCCCCCCCCCCCCNC(=O)/N=C1\CCCN1`, the outcome in test [2] was inactive.
Turning to `Cc1cccc(C)c1NC(=O)/N=C1\C(C)C(c2ccccc2)CN1C` (configuration not stated), the outcome in test [1], in test [2], in test [3], in test [4], in test [5] and in test [6] was inactive.
As to `CN1CCC/C1=N\C(=O)Nc1ccc(F)cc1`, the result in test [2], in test [3], in test [4] and in test [5] was inactive.
With `Cc1cccc(C)c1NC(=O)/N=C1\CC(C)(C)CN1C`, the result in test [1], in test [2], in test [3], in test [4], in test [5] and in test [6] was inactive.
`CN1CC(C)(C)C/C1=N\C(=O)Nc1cccc(Cl)c1`: the result in test [1], in test [2], in test [3], in test [4], in test [5] and in test [6] was inactive.
`O=C(/N=C1\CCCN1)NC1CCCCC1`: the result in test [2] was inactive.
On to `Cc1cc(C)c(NC(=O)/N=C2\CCCN2C)c(C)c1`, for which the outcome in test [3] and in test [5] was Active.
As for `CN1CCC/C1=N\C(=O)Nc1cccc([N+](=O)[O-])c1`, the outcome in test [2] was inactive.
For the molecule `O=C(/N=C1\CCCN1Cc1ccccc1)Nc1cccc(C(F)(F)F)c1`, the result in test [1], in test [2], in test [3], in test [4], in test [5] and in test [6] was inactive.
Consider `CCOc1ccccc1NC(=O)/N=C1\CCCN1C`, for which the outcome in test [1], in test [2], in test [3], in test [4], in test [5] and in test [6] was Active.
`CN1CC(C)(C)C/C1=N\C(=O)Nc1c(Cl)cccc1Cl`: the result in test [1], in test [2], in test [3], in test [4], in test [5] and in test [6] was inactive.
For `CN1CCC/C1=N\C(=O)Nc1ccc(Cl)cc1`, the result in test [2], in test [3], in test [4] and in test [5] was inactive.
In the case of `CN1CCCC/C1=N\C(=O)Nc1ccc(C(F)(F)F)cc1`, the outcome in test [1], in test [2], in test [3], in test [4], in test [5] and in test [6] was inactive.
As to `O=C1NC(=O)C(c2ccccc2)(c2ccccc2)N1`, the outcome in test [4] was Active.
Consider `Cc1ccc(NC(=O)/N=C2\CCCN2C)cc1`, for which the outcome in test [2], in test [3], in test [4] and in test [5] was inactive.
Turning to `O=C(/N=C1\CCCN1)NC12CC3CC(CC(C3)C1)C2`, the outcome in test [2] was inactive.
As to `CN1CCCC/C1=N\C(=O)Nc1ccccc1`, the result in test [1], in test [2], in test [3], in test [4], in test [5] and in test [6] was inactive.
For the molecule `CN1CCCCC/C1=N\C(=O)Nc1cccc(Cl)c1`, the outcome in test [1], in test [2], in test [3], in test [4], in test [5] and in test [6] was inactive.
With `CN1CC(c2ccccc2)C/C1=N\C(=O)Nc1c(Cl)cccc1Cl` (configuration not stated), the result in test [1], in test [2], in test [3], in test [4], in test [5] and in test [6] was inactive.
As to `CN1CCC/C1=N\C(=O)Nc1ccccc1C(F)(F)F`, the result in test [1], in test [2], in test [3], in test [4], in test [5] and in test [6] was Active.
As to `Cc1cccc(C)c1NC(=O)/N=C1\CCCCCN1`, the outcome in test [1], in test [2], in test [3], in test [4], in test [5] and in test [6] was inactive.
Regarding `CN1CCC/C1=N\C(=S)Nc1ccccc1`, the result in test [1], in test [2], in test [3], in test [4], in test [5] and in test [6] was inactive.
Take `CC1/C(=N\C(=O)Nc2c(Cl)cccc2Cl)N(C)CC1c1ccccc1` (configuration not stated): the result in test [1], in test [2], in test [3], in test [4], in test [5] and in test [6] was inactive.
With `COc1ccc(NC(=O)/N=C2\CCCN2C)cc1`, the outcome in test [2], in test [3], in test [4] and in test [5] was inactive.
With `CSc1ccc(NC(=O)/N=C2\CCCN2C)cc1`, the outcome in test [2], in test [3], in test [4] and in test [5] was inactive.
As to `Cc1ccc(Cl)c(C)c1NC(=O)/N=C1\CCCN1C`, the outcome in test [3] and in test [5] was Active.
Take `CN1CCC/C1=N\C(=O)Nc1c(Cl)cc(Cl)cc1Cl`: the result in test [3] and in test [5] was Active.
Consider `CN1CCC/C1=N\C(=O)Nc1ccc(C(F)(F)F)cc1`, for which the outcome in test [2] was inactive.
On to `CCOc1ccc(NC(=O)/N=C2\CCCN2C)cc1`, for which the outcome in test [2], in test [3], in test [4] and in test [5] was inactive.
For `CN1CCC/C1=N\C(=O)Nc1c(Br)cc(Br)cc1Br`, the result in test [3] and in test [5] was Active.
With `CN1CCC/C1=N\C(=O)Nc1ccc(OCc2ccccc2)cc1`, the outcome in test [2], in test [3], in test [4] and in test [5] was inactive.
In the case of `CCOC(=O)c1ccc(NC(=O)/N=C2\CCCN2C)cc1`, the result in test [2], in test [3], in test [4] and in test [5] was inactive.
As to `CN1CCC/C1=N\C(=O)Nc1ccc(S(C)(=O)=O)cc1`, the result in test [2], in test [3], in test [4] and in test [5] was inactive.
Take `CN1CCC/C1=N\C(=O)Nc1cc(C(F)(F)F)cc(C(F)(F)F)c1`: the result in test [4] was Active.
Turning to `Cc1cc(N(C)C)cc(C)c1NC(=O)/N=C1\CCCN1C`, the result in test [3] and in test [5] was Active.
In the case of `CN1CCC/C1=N\C(=O)Nc1ccc(C(C)(C)C)cc1`, the outcome in test [2], in test [3], in test [4] and in test [5] was inactive.
With `CN1CCC/C1=N\C(=O)Nc1ccc(Br)cc1`, the result in test [2], in test [3], in test [4] and in test [5] was inactive.
